Type in all cases: in vivo
For test [1], the system named is trigeminal nucleus caudalis wide dynamic range (WDR) neurons. Kind of test: Electrical stimulation-induced responses of trigeminal nucleus caudalis WDR neurons. Conditions: rat. Here is the method:
Male Sprague-Dawley rats (Charles River Laboratories) were anesthetized with isoflurane and used in the following experiments. In the anesthetized rats, single unit, extracellular recordings were performed in trigeminal nucleus caudalis while stimulating the ipsilateral facial skin with constant-current bipolar electrical stimulation. Epoxylate-insulated, tungsten microelectrodes (10 MOhm) were used under stereotaxic coordinate control.
Shown are responses (action potentials per 30 stimuli) to repeated stimulation of a rat's face before oxytocin administration (pre-oxytocin). After administration with oxytocin at approximately 0.1 IU, responses were recorded every five minutes for 65 minutes. A second administration of oxytocin at the same dosage was administered at approximately 70 minutes after the first dose. The approximate site of the administration of the electrical stimulation is indicated by the black spot on a map of the rat's face (FIG. 3B).

In test [2] the test system is single pain sensing nerve cells in the trigeminal ganglion. The test is described as follows: Nerve impulses of single trigeminal ganglion neurons in response to noxious laser pulses to the face. As to conditions: rat, 10 nmoles applied to the nose, FIG. 2. The method, then: Sprague-Dawley rats (Charles River Laboratories) were anesthetized with isofluorane and a platinum electrode was inserted transcranially into the trigeminal ganglion. Nerve impulses (action potential) were recorded from single pain sensing nerve cells in the trigeminal ganglion in response to application of noxious laser pulses to the face of the rats. After recording responses to several identical laser pulses, 10 nmoles of oxytocin was applied to the nose of the rats. Thereafter, identical laser pulses were once again applied and recorded.

In test [3] the test system is second-order neurons in the trigeminal nucleus caudalis. Kind of test: Electrical stimulus-induced windup. As to conditions: rat, intranasal 0.025 ml of 0.05 mg/ml. From the text: Male Sprague-Dawley rats (Charles River Laboratories) were anesthetized with isoflurane and used in the following experiments. […] Needle electrodes were inserted subcutaneously at the site indicated in FIG. 5A by the black spot on the rat's head, and the skin was stimulated at 0.66 Hz, 2 msec duration, 3×C-fiber threshold for >25 times.

Test [4] has as its system trigeminal nucleus caudalis wide dynamic range (WDR) neurons. Kind of test: Long-pulse laser-induced responses of trigeminal nucleus caudalis WDR neurons. Conditions: rat, intranasal 0.025 ml of 0.05 mg/ml. Here is the method:
Male Sprague-Dawley rats (Charles River Laboratories) were anesthetized with isoflurane and used in the following experiments. In the anesthetized rats, single unit, extracellular recordings were performed in trigeminal nucleus caudalis while stimulating the ipsilateral facial skin with diode laser or constant-current bipolar electrical stimulation. Epoxylate-insulated, tungsten microelectrodes (10 MOhm) were used under stereotaxic coordinate control. […] Shown are responses (action potentials per second) to an 8 second-duration, 425 mA intensity laser stimulus to the site indicated by the black spot on a map of the rat's face (FIG. 4E).

In test [5] the test system is Sprague-Dawley rats. The test is described as follows: Withdrawal latencies after noxious laser thermal stimulation of ears or hindpaws after intranasal administration. As to conditions: rat, intranasal 10 nmoles/kg, tested from five minutes after final application. From the text: One way to test activity of an analgesic agent in a rat model is by treatment-induced changes in latencies (times) of withdrawal in response to noxious heating of the skin, typically using an ear, the face or a hindpaw. Thus, application of coherent or non-coherent (non-laser) radiant heat to the ear, the face or hindpaw will elicit rapid withdrawal movements. […] Transmucosal or transdermal administration of analgesic agents to the trigeminal nerve to reduce trigeminal nerve-associated pain can be tested for regional and/or systemic analgesia. The rostral external part of a rat's ear is innervated by a branch of the mandibular nerve, itself a branch of the trigeminal nerve, thus after treatment an increase in latency to withdrawal time would indicate regional analgesia. […]
Sprague-Dawley rats (Charles River Laboratories) were lightly anesthetized with urethane and placed with minimal restraint on a heating pad to maintain their body temperature at 37° C. […] Baseline withdrawal latencies were measured by delivering 4 separate stimuli with a resting period of approximately 15 minutes between each stimulus. […] As described above, testing sessions were videotaped and analyzed.

[6] abbreviates: intranasal approximately 0.1 IU, first dose.
The mark [7] stands for this setting: second intranasal dose approximately 0.1 IU at approximately 70 minutes after the first.

Where only a bound is given, the exact number is not on record here.

In the case of `CC[C@H](C)[C@@H]1NC(=O)[C@H](Cc2ccc(O)cc2)NC(=O)[C@@H](N)CSSC[C@@H](C(=O)N2CCC[C@H]2C(=O)N[C@@H](CC(C)C)C(=O)NCC(N)=O)NC(=O)[C@H](CC(N)=O)NC(=O)[C@H](CCC(N)=O)NC1=O` [Oxytocin, Cys-Tyr-Ile-Gln-Asn-Cys-Pro-Leu-Gly], the “responses (action potentials per 30 stimuli) after first administration” value in test [1] (intranasal approximately 0.1 IU, electrical stimulation of face, FIG. 3A) was “significant reduction in responses”. Moreover, in test [1] (setting [6]), the “time after first administration at which reduction in responses began” value is 10 min and the “time post treatment until which reduction continued (responses then began to increase)” value was determined as 50 min. In test [1] (setting [7]), the “responses (action potentials per 30 stimuli) after second administration” value is given as “significant reduction in responses” and the “time to reduction in responses after second administration” value was at most 10 min. In test [2], the “neuronal response (average nerve impulses per laser pulse), post- vs pre-treatment” value was “significantly (p<0.05) reduced”.

As to `C[C@@H](O)[C@@H]1NC(=O)[C@H](CCCCN)NC(=O)[C@@H](Cc2c[nH]c3ccccc23)NC(=O)[C@H](Cc2ccccc2)NC(=O)[C@@H](NC(=O)[C@H](N)Cc2ccccc2)CSSC[C@@H](C(=O)N[C@H](CO)[C@@H](C)O)NC1=O` [octreotide], the “reduction of total number of action potentials” value in test [3] (10 minutes after administration vs before) is on record as 19.4%. The “total number of action potentials during the stimulation period” value in test [3] (10 minutes after administration, 25 stimulations at 0.66 Hz, 506 before treatment) came to 408. Further, the “response five minutes post-treatment” value in test [4] (8 second 425 mA laser stimulus, 5 minutes, FIG. 4B) was “no detectable reduction in response”. Moreover, in test [4] (8 second 425 mA laser stimulus, 10 minutes, baseline 42 spikes), the “response at 10 minutes post-treatment” value came to 5 spikes. Moreover, the “reduction of response at 10 minutes post-treatment” value in test [4] (10 minutes vs pre-treatment baseline) stood at 88%. For the same compound, in test [4] (25 minutes, FIG. 4D), the “response 25 minutes post-treatment” value is recorded as “recovered”.

Regarding Tyr-Gly-Gly-Phe-Met [met-enkephalin], the “regional analgesic effect (ear withdrawal latency)” value in test [5] (laser to ears, FIG. 1A) is “achieved a regional analgesic effect in the head region”. In addition, the “systemic analgesic effect (hindpaw withdrawal latency)” value in test [5] (laser to hindpaws, FIG. 1B) is reported as “without a systemic analgesic effect at the hindpaw”.

The values above are taken from patent US8258096B2, “Therapy procedure for drug delivery for trigeminal pain” (The Board of Trustees of the Leland Stanford Junior …, priority 2005, dated 2012).
